Experimental data as given in patent publication US11130959B2, “Methods and compositions for combinations of mutations associated with herbicide resistance/tolerance in rice” (priority 2016, dated 2021).

Legend:
[1] = tested on: rice line PL1214418M2-73013 (HPPD native tolerance gene only); test: Contribution of single HPPD tolerance genes, field rows sprayed at 4 leaf stage; assay type: in vivo, Oryza sativa; details: 0.5×-4× of 210 gmai/ha, 4 weeks after application
From the text: (§1) During the breeding process to develop new lines (PL1214418M2-80048 and PL1214418M2-73009) with resistance/tolerance to HPPD and ACCase herbicides, two other lines were also investigated to determine the contribution of the HPPD tolerance mutation and the HPPD tolerance native gene. The line PL1214418M2-73001 carries ACCase tolerance and only the HPPD tolerance, whereas […] PL1214418M2-73013 carries ACCase tolerance and only the HPPD native tolerance gene. These selections allow the estimation of the tolerance effect of each of the two genes required for tolerance to HPPD herbicides. The tolerance effect of each gene was measured by growing the lines in single rows including the newly developed line PL1214418M2-73009 that carries both the HPPD tolerance from the mutation and the non-induced tolerance, the HPPD tolerant line ML0831266-0309, and the non-induced parent line P1003. The field plots were sprayed at the 4 leaf stage with the HPPD herbicide mesotrione at 0.5×, 1×, 2×, and 4× multiples of the labeled application rate of 210 gmai/ha.

[2] = tested on: rice line PL1214418M2-73001 (HPPD mutation only); test: as above; assay type: in vivo, Oryza sativa; details: 0.5×-4× of 210 gmai/ha, 4 weeks after application
From the text: as §1

[3] = tested on: rice line ML0831265-01493; test: Mesotrione tolerance trials; assay type: in vivo, Oryza sativa
[4] = tested on: rice line P1003 (unmutated parent); test: Mesotrione tolerance trials; assay type: in vivo, Oryza sativa
[5] = tested on: F2 individuals from cross ML0831266-03093 x ML0831265-01493; test: Herbicide bioassays on F2 individuals (Table 3); assay type: in vivo, Oryza sativa
From the text: In the population sprayed with 105 gm ai/ha a single QTL found on chromosome 2 with strong linkage to SNP marker BG-id2004662 acted in a mostly dominate manner. This marker and QTL identifies the inherent tolerance in line P1003. The marker is useful for breeding and selection of new mesotrione tolerant lines. The discovery of this QTL facilitates commercial development of new rice varieties with a new method for controlling weeds through the use of mesotrione herbicide. The finding of the linked marker BG-id2004662 is a novel finding and selection strategy for breeding and selecting the tolerance to mesotrione and other herbicides derived from line P1003.
Combining the HPPD tolerance with the ACCase tolerance into a single rice line was initiated with the HPPD tolerance mapping project by crossing the HPPD tolerant line ML0831266-03093 to the ACCase tolerant line ML0831265-01493. In mapping the F2 population plants were selected for HPPD tolerance by applying mesotrione first at a low rate (105 gmai/ha) followed by a high rate (630 gmai/ha). In this process molecular markers were also developed allowing future selection of HPPD tolerance by either markers or herbicide tolerance screening or both.
In one example a rate of 105 gm ai/ha is applied followed three weeks later by a second application of 630 gm ai/ha. In another example a rate of 420 gm ai/ha is applied in a single application. Yet another example entails applying the herbicide at a rate of 630 gm ai/ha. Herbicide applications are done at the three to four leaf stage of seedling growth. The ideal situation is to have also planted near or within the F2 population a set of plants from the original mutant mesotrione donor line ML0831266-03093, a row of plants of the wild-type of the mutation line, P1003, and a row of the line involved as the other parent ML0831265-01493. These control lines will allow easy differentiation for inheritance of the tolerance provided by the ML0831266-03093 mutant line through comparison of the response in the F2 plants to these control lines. Only plants that live and are relatively healthy will have inherited and be homozygous for the tolerance level provided by the ML0831266-03093 mutant line.

[6] = tested on: common weeds in rice (grass weeds such as barnyard grass); test: Weed control in rice crops; assay type: in vivo
Description: FIGS. 5A and 5B are photographs of results of trait tolerance trials; weed control by mesotrione herbicide applied pre-planting was evaluated; the plots were planted with a hybrid of the HPPD tolerant line ML0831266-03093; just before planting, the plot on the right FIG. 5B received an application of mesotrione at 210 gmai/ha; the plot on the left FIG. 5A had no herbicide applied either pre-plant or post-emergence; pictures were taken four weeks after planting showing differences in weed appearance.
While testing the tolerant lines, the parent lines were also tested to serve as controls and as an indication of commercial potential as a red rice/wild weedy rice control strategy.
Rice is tolerant to certain ACCase inhibitor herbicides, for example cyhalofop is registered for use in rice. However other ACCase herbicides kill or severely injure rice to varying degrees. […] The applied rates of both types of herbicides giving the weed control are well within the tolerance level of the respective ACCase and HPPD tolerant lines including the combined lines carrying tolerance to both HPPD and ACCase herbicides.

[7] = tested on: rice line ML0831266-03093 (HPPDi + HPPDni); test: Mesotrione tolerance trials
Description: FIG. 4 is a graphical representation of results of a trait tolerance trial wherein mesotrione was applied at the indicated rates about 34 days after planting.
In particular, a rate response experiment was conducted in which two different rates of mesotrione were applied pre-emergence, plus an additional foliar application was also applied.
Further validation of the trait involved testing the mutant line ML0831266-03093 in the presence of common rice weeds.
The mutant line is planted in rows or alternatively whole plots are planted and rows of the unmutated line (P1003) and other types of rice or whole plots are planted. Mesotrione is applied pre-emergence or alternatively it is applied post-emergence at the three to four leaf stage of the rice plants. Various rates of mesotrione are applied pre-emergence, pre-emergence followed by post-emergent, or post-emergent with a single or sequential application. Post-emergent applications are applied at the 3-4 leaf stage of the rice.

[8] = tested on: rice line R0146 (unmutated); test: Mesotrione tolerance trials; assay type: in vivo, Oryza sativa; details: low rates (105 gm ai/ha)
[9] = tested on: rice line PL1214418M2-73009; test: Trial of recovery of HPPD tolerance in the combined line; assay type: in vivo, Oryza sativa; details: 0.5×, 1×, 2×, 4× of 210 gmai/ha and sequential 1× and 2×
Description: Two trials were conducted to measure recovery of tolerance to both ACCase and HPPD herbicides in the new line PL1214418M2-73009. Recovery of tolerance in the line combining the two traits will illustrate that the traits are heritable and can be used to produce new varieties and hybrids carrying herbicide resistance. These trials are important as often times it is difficult to recover complex QTLs for quantitative traits or in some cases a traits response is dependent upon the genetic background. In the first trail the lines resistance to mesotrione (HPPD herbicide) was evaluated by planting line PL1214418M2-73009, the HPPD resistant line ML0831266-03093 and wild-type rice line P1003 and R0146 in plots (5 feet×10 feet). Mesotrione was applied at 0.5×, 1×, 2×, and 4× multiples of the labeled application rate (210 gmai/ha). Two additional treatments were included with a 1× and 2× rate followed by a second application 14 days afterward with the same rates.

[10] = 105 gai/ha followed by second application of 630 gai/ha
[11] = single application at 105 gai/ha
[12] = single application at 420 gai/ha

`CS(=O)(=O)c1ccc(C(=O)C2C(=O)CCCC2=O)c([N+](=O)[O-])c1` [mesotrione] was tested, and the tolerance level [1] was “tolerance levels similar to the parent line P1003”, the “tolerance level between P1003 and ML0831266-0309” value [2] was “intermediate tolerance” and the sensitivity ([3]; in vivo) was “highly sensitive”. The survival ([3]; low rates (105 gm ai/ha)) was “killed”, the survival ([4]; higher rates) was “killed or severally injured” and the survival ([4]; low rates (105 gm ai/ha)) was “survive”. The “Observed number of Susceptible plants” value [5, 10] was 67, the “Observed number of Tolerant plants” value [5, 10] was 28 and the “Observed number of Susceptible plants” value [5, 11] was 23. For the same molecule, the “Observed number of Tolerant plants” value [5, 11] was 64, the “Observed number of Susceptible plants” value [5, 12] was 52 and the “Observed number of Tolerant plants” value [5, 12] was 26. The “control of common weeds in rice” value ([6]; alone, especially pre-plant or at 2× the labeled rate of 210 gmai/ha) was “Control of common weeds in rice was also achieved”, the “control of prevalent weed population” value ([6]; plots with line ML0831266-03093) was “well controlled” and the “rate over which even lines with genetic resistance may be injured” value ([7]; FIG. 4 trial, 4 weeks after application) was “over 420 gmai/ha”. The “tolerance of the crop in the presence of common rice weeds” value ([7]; applied rates) was “completely tolerant”, the survival ([7]; higher rates) was “survives” and the survival ([7]; low rates (105 gm ai/ha)) was “survive”. The survival [8] was “killed” and the “response compared with original trait line ML0831266-03093” value [9] was “same response”.
